Format in all cases: functional
The test system of assay [1] is Rattus norvegicus. Description: Antiinflammatory activity against carrageenan-induced paw edema in rat assessed as paw volume at 50 mg/kg, po administered 30 mins before carrageenan challenge measured after 1 to 3 hrs by water plethysmometer relative to control. For orientation: The carrageenan paw model is a standard test of acute inflammation.
In assay [2] the test system is A549. Nature of the assay: Anticancer activity against human A549 cells assessed as cell growth inhibition at 10 uM after 48 hrs by SRB assay. To be noted: A549, 48 h, read-out: GI.
Assay [3] has as its system HOP-62. Nature of the assay: Anticancer activity against human HOP62 cells assessed as cell growth inhibition at 10 uM after 48 hrs by SRB assay. The settings on record: HOP-62, 48 h, read-out: GI. In general terms: Sulforhodamine B stains cellular protein and so reports cell mass.
Assay [4] deals with PC-3. Nature of the assay: Anticancer activity against human PC3 cells assessed as cell growth inhibition at 10 uM after 48 hrs by SRB assay. The settings on record: PC-3, 48 h, read-out: GI.
The subject of assay [5] is IGROV-1. Description: Anticancer activity against human IGROV1 cells assessed as cell growth inhibition at 10 uM after 48 hrs by SRB assay. To be noted: IGROV-1, 48 h, read-out: GI.
The subject of assay [6] is MCF7. Description: Anticancer activity against human MCF7 cells assessed as cell growth inhibition at 10 uM after 48 hrs by SRB assay. The settings on record: MCF7, 48 h, read-out: GI.
Assay [7] deals with SF-295. Nature of the assay: Anticancer activity against human SF295 cells assessed as cell growth inhibition at 10 uM after 48 hrs by SRB assay. The settings on record: SF-295, 48 h, read-out: GI.

Structures can show the parent of a compound that is named as a salt.

Turning to `Cc1cc2[nH]c3cc4ccccc4c(=O)n3c2cc1C`, the Activity in assay [1] was found to be 29.6%. Also, the inhibition of growth at 10 µM in assay [2] was 41%; in assay [3], 0%; in assay [4], 39%; in assay [5], 7%; in assay [6] it was 22%; in assay [7] it was 13%.

On to `O=c1c2ccccc2cc2n1C1CCCCC1N2` (configuration not stated), for which the Activity in assay [1] is recorded as 34.7%. For the same compound, the inhibition of growth at 10 µM in assay [2] was determined as 10%; in assay [3], 12%; in assay [4], 6%; in assay [5] it was 28%; in assay [6], 6%; in assay [7], 0%.

For the compound `O=C1CCc2nc3ccc(Br)cc3n21`, the Activity in assay [1] is reported as 10%. Moreover, the inhibition of growth at 10 µM in assay [2] is 12%; in assay [3], 16%; in assay [4], 40%; in assay [5], 50%; in assay [6], 31%; in assay [7], 0%.

Consider `O=C1CCC2=NC3CCCCC3N12` (configuration not stated), for which, in assay [1], the Activity came out at 19.7%. Also, the inhibition of growth at 10 µM in assay [2] is 2%; in assay [3] it was 0%; in assay [4] it was 16%; in assay [5], 2%; in assay [6], 13%; in assay [7], 38%.

Regarding `Cc1cc2nc3n(c2cc1C)C(=O)c1nccnc1-3`, the Activity in assay [1] stood at 15.9%. The inhibition of growth at 10 µM in assay [2] is 25%; in assay [3] it was 0%; in assay [4], 39%; in assay [5] it was 7%; in assay [6] it was 22%; in assay [7], 13%.

Consider `CO[C@@]12[C@H](COC(N)=O)C3=C(C(=O)C(C)=C(N)C3=O)N1C[C@@H]1N[C@@H]12` [MITOMYCIN], for which the inhibition of growth at 10 µM in assay [4] worked out at 53%; in assay [7], 43%.

On to `Cc1cc2nc3n(c2cc1C)C(=O)CC3`, for which the Activity in assay [1] was determined as 39.4%. Besides, the inhibition of growth at 10 µM in assay [2] was 0%; in assay [3], 4%; in assay [4], 7%; in assay [5], 26%; in assay [6], 8%; in assay [7], 54%.

For the compound `O=C1CCc2nc3cccc(O)c3n21`, the Activity in assay [1] is given as 39.2%. Moreover, the inhibition of growth at 10 µM was determined as 0% in assay [2]; 9% in assay [3]; 13% in assay [4]; 20% in assay [5]; 22% in assay [6]; 53% in assay [7].

Turning to `COc1cccc2c1C(=O)c1c(O)c3c(c(O)c1C2=O)C[C@@](O)(C(=O)CO)C[C@@H]3O[C@H]1C[C@H](N)[C@H](O)[C@H](C)O1` [DOXORUBICIN HYDROCHLORIDE], the inhibition of growth at 10 µM is 72% in assay [6] and 69% in assay [7].

In the case of `O=C1CCc2nc3ccc([N+](=O)[O-])cc3n21`, the Activity in assay [1] is 0%. In addition, the inhibition of growth at 10 µM in assay [2] came out at 5%; in assay [3], 0%; in assay [4], 8%; in assay [5] it was 0%; in assay [6], 12%; in assay [7] it was 38%.

On to `Cc1cccc2nc3n(c12)C(=O)CC3`, for which, in assay [1], the Activity is recorded as 29.9%. The inhibition of growth at 10 µM came out at 2% in assay [2]; 0% in assay [3]; 14% in assay [4]; 3% in assay [5]; 8% in assay [6]; 38% in assay [7].

Turning to `N#Cc1ccc2nc3n(c2c1)C(=O)CC3`, the Activity in assay [1] came to 9%. The inhibition of growth at 10 µM in assay [2] was 6%; in assay [3], 0%; in assay [4], 3%; in assay [5] it was 21%; in assay [6] it was 25%; in assay [7] it was 52%.

Regarding `O=C1c2nccnc2-c2nc3ccccc3n21`, in assay [1], the Activity is 10%. Moreover, the inhibition of growth at 10 µM in assay [2] was determined as 0%; in assay [3], 10%; in assay [4], 13%; in assay [5], 15%; in assay [6], 20%; in assay [7] it was 25%.

As for `O=C1CCc2nc3ccc(Cl)cc3n21`, the Activity in assay [1] amounted to 27.6%. The inhibition of growth at 10 µM in assay [2] was 3%; in assay [3] it was 11%; in assay [4] it was 14%; in assay [5] it was 0%; in assay [6] it was 52%; in assay [7] it was 37%.

Turning to `O=C1c2nccnc2C2=NC3CCCCC3N12` (configuration not stated), the Activity in assay [1] is recorded as 25.6%. Moreover, the inhibition of growth at 10 µM in assay [2] was 10%; in assay [3] it was 6%; in assay [4] it was 15%; in assay [5], 28%; in assay [6], 48%; in assay [7], 37%.

On to `O=C1c2nccnc2C2=Nc3ccccc3CN12`, for which the Activity in assay [1] was found to be 28.6%. The inhibition of growth at 10 µM is 48% in assay [2]; 23% in assay [3]; 46% in assay [4]; 55% in assay [5]; 56% in assay [6]; 66% in assay [7].

For the compound `CC(=O)O[C@H]1C(=O)[C@@]2(C)[C@H]([C@H](OC(=O)c3ccccc3)[C@]3(O)C[C@H](OC(=O)[C@H](O)[C@@H](NC(=O)c4ccccc4)c4ccccc4)C(C)=C1C3(C)C)[C@]1(OC(C)=O)CO[C@@H]1C[C@@H]2O` [PACLITAXEL], the inhibition of growth at 10 µM came out at 50% in assay [2], 42% in assay [3] and 43% in assay [5].

For `O=c1c2ccccc2cc2[nH]c3cccc(O)c3n12`, the Activity in assay [1] was 31.8%. The inhibition of growth at 10 µM in assay [2] came out at 0%; in assay [3], 0%; in assay [4], 13%; in assay [5], 15%; in assay [6], 20%; in assay [7], 55%.
